Data taken from patent US20050272688A1, “Combined treatment with gemcitabine and an epidermal growth factor receptor kinase inhibitor” (priority 2004, published 2005).
“And” between values parts separate entries of the source, which are not always exact repeats. Equal values may be shown once. Read-outs that look alike come from different tables or passages of the source.

How the values were obtained:
H460a NSCLC xenograft = experiment: Tumor growth inhibition in H460a NSCLC xenograft model; assay type: in vivo, athymic nude mice
Description: (§1) Mice were implanted with H460a NSCLC cells. […] Tumor size was measured 3 times per week. Values are means, n=10.
as §1
(§2) H460a cells (provided by Dr Jack Roth, Md., Anderson) were grown in Dulbecco's Modified Eagle Media (DMEM) supplemented with 10% Foetal Bovine Serum (FBS). A549 cells (American Type Culture Collection [Manassas, Va.] were grown in Roswell Park Memorial Institute medium (RPMI) 1640+10% FBS. The cell concentrations for implant were 1×10^7 cells/0.2 mL for H460a and 7.5×10^6 cells/0.2 mL for A549.
(§3) Cells were suspended in phosphate-buffered saline, and implanted subcutaneously in the right flank of each mouse. Once palpable tumours were established, animals were randomised so that all groups had similar starting mean tumour volumes of 100-150 mm^3. Tumour measurements and mouse weights were taken three times per week. Animals were individually monitored throughout the experiment.
(§4) All groups were treated daily for 3 weeks.
(§5) Gemcitabine was given intraperitoneally (i.p.) using a 3 mL syringe and 26-gauge needle. All groups were treated every 3 days for 3 weeks (a total of six injections).
(§6) Weight loss was calculated as percent change in mean group body weight, using the formula: ((W−W0)/W0)×100 • where ‘W’ represents mean body weight of the treated group at a particular day, and ‘W0’ represents mean body weight of the same group at start of treatment. Maximum weight loss was also calculated using the above formula, giving the maximum percentage of body weight lost at any time in the entire experiment for a particular group. Treatment efficacy was assessed by tumor growth inhibition. Tumour volumes of treated groups were given as percentages of tumor volumes of the control groups (% T/C), using the formula: 100×((T−T0)/(C−C0)) • where ‘T’ represents mean tumor volume of a treated group on a specific day during the experiment, ‘T0’ represented mean tumor volume of the same group on the first day of treatment, C represents mean tumor volume of a control group on a particular day of the experiment, and C0 represents mean tumor volume of the same group on the first day of treatment.
(§7) Tumor growth inhibition was calculated using the formula: [127] 100% T/C
(§8) Tumor volume (mm^3) was calculated using the ellipsoid formula: (D×(d^2))/2 • where ‘D’ represents the large diameter of the tumor, and ‘d’ represents the small diameter. In some cases, tumor regression and/or percentage change in tumor volume was calculated using the formula: ((T−T0)/T0)×100 • where ‘T’ represents mean tumor volume of the treated group at a particular day, and ‘T0’ represents mean tumor volume of the same treated group at the start of treatment.

in vivo = conditions: for MTD at 14 days: female, mouse, in vivo
Description: FIG. 6: Maximum tolerated dose assessment in non-tumour bearing athymic nude mice treated for 14 days (n=5).
Female, athymic, nu/nu-nuBR nude mice (Charles River Labs, Wilmington, USA) of around 10-12 weeks and weighing 23-25 g were used. The health of the mice was assessed daily by observation and analysis of blood samples taken from sentinel animals on the shared shelf racks. All animals were allowed to acclimatise and recover from shipping-related stress for 1 week.

A549 NSCLC xenograft = assay type: in vivo
Description: Mice were implanted with A549 NSCLC cells. […] Tumor size was measured 3 times per week. Values are means, n=10.
as §2, §3, §4, §5, §6, §7, §8

NSCLC = conditions: single agent, stage 1V patients; cited from earlier work
NSCLC xenograft tumor = experiment: Immunohistochemistry of xenograft tumors (Ki-67, TUNEL apoptosis, CD31 microvascular density); assay type: in vivo, athymic nude mice
Description: Sections for immunohistochemistry were cut at 5μ.
To block non-specific tissue-binding sites, sections were blocked by 10% normal serum from the species in which the secondary antibody was raised. Sections were incubated for 20 minutes at room temperature in serum prepared in Ultra-V (Lab Vision).

[1] = Necropsy, haematology, clinical chemistry and histology of treated mice; assay type: in vivo, athymic nude mice
Description: At necropsy, skin samples were fixed in 10% buffered formalin, embedded in paraffin, sectioned at 5 μand stained with haematoxylin and eosin.
Five mice per treatment from all remaining groups were given a full necropsy at the end of the study. Whole blood was also collected from these mice for haematology and clinical chemistry.

[2] = Chronic-dose plasma and tumor concentrations of erlotinib in tumor-bearing mice; assay type: in vivo, nu/nu athymic mice; conditions: for concentration at 1 h / concentration at 6 h: nu/nu athymic, mouse; for concentration at 1 h: 1 hour post dose; for concentration at 6 h: 6 hours post dose
Description: On day 28 post tumor implant, blood (from the retro-orbital sinus) and tumor samples were collected at 1 and 6 hours post dosing. […] Values are means±SD, n=3.
(§9) For single-dose pharmacokinetics (PK), blood samples from three mice per time point were collected by cardiac puncture at 5, 15, 30, 60 minutes and 2, 4, 8, 16, 24 hours post-dose. For chronically treated animals, blood samples from two or three mice per time point were collected via the retro-orbital sinus at 1 and 6 hours. Collection tubes contained ethylene diamine tetra-acetic acid (EDTA) as anticoagulant. Samples were stored at −70° C. […] PK parameters were estimated by non-compartmental analysis of the composite data, using the PK evaluation programme WinNonlin PRO® version 3.1 (Pharsight Inc).

[3] = Single-dose pharmacokinetics of erlotinib in non-tumor bearing mice; assay type: in vivo, female nu/nu athymic mice
Description: as §9
The doses refer to the hydrochloride salt with an active drug (free base) content of 91.5%. […] Three animals per time point were evaluated for PK data (FIG. 4).

[4] = plasma, oral 6.3-150.0 mg/kg daily, highest value, read-out: Plasma concentration
[5] = H460a tumor, oral 150 mg/kg, read-out: Mean tumor concentration

Work on `Nc1ccn([C@@H]2O[C@H](CO)[C@@H](O)C2(F)F)c(=O)n1` [gemcitabine] yielded a Tumor growth inhibition (H460a NSCLC xenograft; combination study, gemcitabine 30 mg/kg i.p. every 3 days alone) of 64%, a Tumor growth inhibition (H460a NSCLC xenograft; combination study, gemcitabine 120 mg/kg i.p. every 3 days alone) of 93% and an MTD at 14 days (in vivo; every 3 days) of 120 mg/kg. For the same compound, the Tumor growth inhibition (A549 NSCLC xenograft; gemcitabine 30 mg/kg alone, day 47) was 42%, the “Extent of partial regression” value (A549 NSCLC xenograft; gemcitabine 120 mg/kg alone) was 5% and the “Number of partial regressions” value (A549 NSCLC xenograft; gemcitabine 120 mg/kg alone) was “one”. For the same compound, the Tumor growth inhibition (A549 NSCLC xenograft; gemcitabine 120 mg/kg alone, day 47) was 75%.

In the case of `CC(=O)O[C@H]1C(=O)[C@@]2(C)[C@H]([C@H](OC(=O)c3ccccc3)[C@]3(O)C[C@H](OC(=O)[C@H](O)[C@@H](NC(=O)c4ccccc4)c4ccccc4)C(C)=C1C3(C)C)[C@]1(OC(C)=O)CO[C@@H]1C[C@@H]2O` [paclitaxel], the Response rate (NSCLC) is listed as 21% to 24%.

For `C#Cc1cccc(Nc2ncnc3cc(OCCOC)c(OCCOC)cc23)c1` [erlotinib, [6,7-bis(2-methoxyethoxy)-4-quinazolin-4-yl]-(3-ethynylphenyl) amine], the Ki-67 proliferative index (NSCLC xenograft tumor; erlotinib 100 mg/kg, both NSCLC xenograft tumor models) was “mild decrease”, the “Angiogenesis as microvascular density (MVD), CD31 staining” value (NSCLC xenograft tumor; erlotinib monotherapy) was “no clear effect” and the “Frequency of apoptosis in tumor cells” value (NSCLC xenograft tumor; erlotinib monotherapy, treated xenografts) was “no significant difference”. For the same compound, the Skin lesion histology ([1]; erlotinib 100 mg/kg/day for 21 days) was “diffuse, mild to moderate epidermal acanthosis, epidermal hyperkeratosis, focal escharosis, and infiltration of mostly acute inflammatory cells in the dermis”, the “Changes in haematology or clinical chemistry parameters” value ([1]; erlotinib monotherapy) was “no changes” and the “Treatment-related macroscopic changes in the skin” value ([1]; erlotinib monotherapy) was “substantial reddening and crusting of the skin of the muzzle”. For the same compound, the Tumor growth inhibition (H460a NSCLC xenograft; dose response study, 6.25 mg/kg oral daily, day 28) was 28%, the Tumor growth inhibition (H460a NSCLC xenograft; dose response study, 12.5 mg/kg oral daily, day 28) was 36% and the Tumor growth inhibition (H460a NSCLC xenograft; dose response study, 25 mg/kg oral daily, day 28) was 46%. For the same compound, the Tumor growth inhibition (H460a NSCLC xenograft; dose response study, 100 mg/kg oral daily, day 28 post tumor implantation) was 61%, the Tumor regressions (H460a NSCLC xenograft; dose response study, all dose groups) was “no partial or complete regressions” and the “Dose proportionality of exposure” value ([2]; ascending oral doses 6.3-150.0 mg/kg, tumor-bearing mice) was “more than dose-proportional”. It also gave a concentration at 1 h [2, 4] of at most 16700 ng/mL, a concentration at 6 h [2, 4] of at most 8870 ng/mL and a concentration at 1 h [2, 5] of 4800 ng/g. The concentration at 6 h [2, 5] was 3090 ng/g, the Tolerability (in vivo; 150 mg/kg for 3 weeks, previous efficacy studies (unpublished)) was “well tolerated” and the Toxicity outcome (in vivo; 200 mg/kg group) was “marked weight loss”. The Toxicity outcome (in vivo; 400 mg/kg group) was “One mouse in the 400 mg/kg group died”, the MTD at 14 days (in vivo; oral daily, 14 days) was 100 mg/kg and the “Dose proportionality of exposure (AUC)” value ([3]; 20 vs 100 mg/kg single dose) was “dose-proportional”. For the same compound, the MRT ([3]; female, nu/nu athymic, mouse, plasma, po, single 20 and 100 mg/kg by gavage, read-out: Average mean residence time) was about 7 h, the half-life ([3]; female, nu/nu athymic, mouse, plasma, po, single 20 and 100 mg/kg by gavage, read-out: Mean apparent terminal half-life (converted)) was about 4 h and the AUC(0-t) ([3]; female, nu/nu athymic, mouse, po, single 20 mg/kg by gavage, plasma) was 33.5 µg·h/mL. The AUC(0-t) ([3]; female, nu/nu athymic, mouse, po, single 100 mg/kg by gavage, plasma) was about 196 µg·h/mL, the “Mean maximum plasma concentration” value ([3]; single 20 mg/kg by gavage) was ~9,100 ng/mL and the “Mean maximum plasma concentration” value ([3]; single 100 mg/kg by gavage) was “approximately 24,000 ng/mL”. For the same compound, the “Time of maximum plasma concentration” value ([3]; single 20 and 100 mg/kg by gavage) was 0.5-1.0 hours post dose, the Tumor growth inhibition (A549 NSCLC xenograft; erlotinib 25 mg/kg alone, day 47) was 48% and the “Extent of partial regression” value (A549 NSCLC xenograft; erlotinib 100 mg/kg alone) was 16% and 7%. For the same compound, the “Number of partial regressions” value (A549 NSCLC xenograft; erlotinib 100 mg/kg alone) was “two” and the Tumor growth inhibition (A549 NSCLC xenograft; erlotinib 100 mg/kg alone, day 47 post tumor implantation (treatment day 19)) was 87%.
